In ChEMBL document CHEMBL6182945, “MMAE-Based Peptide-Drug Conjugates Targeting GPC3 for Precision Chemoradiotherapy in Hepatocellular Carcinoma” (J Med Chem, 2025):

Columns and labels:
[1] = Toxicity in female BALB/c mouse xenografted with human Huh-7 cells assessed as pathological change in liver tissue at 2 mg/kg, iv total 4 doses measured on day 17 by hematoxylin and eosin (H and E) staining analysis; type: organism-based; conditions: in vivo, 408 h, time 17 day
[2] = Plasma stability in human plasma assessed as half life at 500 uM by LC-MS/MS analysis; type: ADME, cell-free
[3] = Toxicity in female BALB/c mouse xenografted with human Huh-7 cells assessed as body weight change at 0.5 to 2 mg/kg, iv total 4 doses measured on day 17; type: organism-based; conditions: in vivo, 408 h, dose 0.5-2 mg/kg, time 17 day
[4] = Toxicity in female BALB/c mouse xenografted with human Huh-7 cells assessed as pathological change in lung tissue at 2 mg/kg, iv total 4 doses measured on day 17 by hematoxylin and eosin (H and E) staining analysis; type: organism-based; conditions: in vivo, 408 h, time 17 day
Huh-7 = assay: Antiproliferative activity against GPC3-positive human Huh-7 cells assessed as cytotoxicity measured after 72 hrs by MTT assay; type: functional, cell-based; conditions: Huh-7, 72 h
[5] = Plasma stability in mouse plasma assessed as compound remaining at 500 uM measured after 8 hrs by LC-MS/MS analysis relative to control; type: ADME, cell-free; conditions: read-out: Stability
[6] = Toxicity in female BALB/c mouse xenografted with human Huh-7 cells assessed as pathological change in liver tissue at 1 mg/kg, iv followed by irradiated with 2 Gy for 2 consecutive days, once a week for 3 weeks measured on day 22; type: organism-based; conditions: in vivo, 528 h, time 22 day
[7] = Plasma stability in human plasma assessed as compound remaining at 500 uM measured after 8 hrs by LC-MS/MS analysis relative to control; type: ADME, cell-free; conditions: read-out: Stability
[8] = Toxicity in female BALB/c mouse xenografted with human Huh-7 cells assessed as pathological change in kidney tissue at 1 mg/kg, iv followed by irradiated with 2 Gy for 2 consecutive days, once a week for 3 weeks measured on day 22; type: organism-based; conditions: in vivo, 528 h, time 22 day
[9] = Plasma stability in human plasma assessed as compound remaining at 500 uM measured after 48 hrs by LC-MS/MS analysis relative to control; type: ADME, cell-free; conditions: read-out: Stability
HeLa = assay: Antiproliferative activity against GPC3-negative human HeLa cells assessed as cytotoxicity measured after 72 hrs by MTT assay; type: functional, cell-based
[10] = Plasma stability in mouse plasma assessed as half life at 500 uM by LC-MS/MS analysis; type: ADME, cell-free
[11] = Toxicity in female BALB/c mouse xenografted with human Huh-7 cells assessed as body weight change at 1 mg/kg, iv followed by irradiated with 2 Gy for 2 consecutive days, once a week for 3 weeks measured on day 22; type: organism-based; conditions: in vivo, 528 h, time 22 day
Hep 3B2 = assay: Antiproliferative activity against GPC3-positive human Hep3B cells assessed as cytotoxicity measured after 72 hrs by MTT assay; type: functional, cell-based
[12] = Toxicity in female BALB/c mouse xenografted with human Huh-7 cells assessed as pathological change in lung tissue at 1 mg/kg, iv followed by irradiated with 2 Gy for 2 consecutive days, once a week for 3 weeks measured on day 22; type: organism-based; conditions: in vivo, 528 h, time 22 day
[13] = Stability in PBS at 500 uM measured up to 48 hrs by LC-MS/MS analysis; type: physicochemical; conditions: buffer
[14] = Toxicity in female BALB/c mouse xenografted with human Huh-7 cells assessed as pathological change in spleen tissue at 1 mg/kg, iv followed by irradiated with 2 Gy for 2 consecutive days, once a week for 3 weeks measured on day 22; type: organism-based; conditions: in vivo, 528 h, time 22 day
[15] = Toxicity in female BALB/c mouse xenografted with human Huh-7 cells assessed as pathological change in heart tissue at 2 mg/kg, iv total 4 doses measured on day 17 by hematoxylin and eosin (H and E) staining analysis; type: organism-based; conditions: in vivo, 408 h, time 17 day
[16] = Toxicity in female BALB/c mouse xenografted with human Huh-7 cells assessed as pathological change in kidney tissue at 2 mg/kg, iv total 4 doses measured on day 17 by hematoxylin and eosin (H and E) staining analysis; type: organism-based; conditions: in vivo, 408 h, time 17 day
Cathepsin B = Cathepsin B (Homo sapiens, UniProt P07858); assay: Drug metabolism assessed as human cathepsin B-mediated monomethyl auristatin E release in HEK293 cells at pH 5.5 buffer measured after 30 mins by LC-MS/MS analysis; type: ADME, cell-based; conditions: hek293, pH 5.5, 0.5 h
[17] = Toxicity in female BALB/c mouse xenografted with human Huh-7 cells assessed as pathological change in spleen tissue at 2 mg/kg, iv total 4 doses measured on day 17 by hematoxylin and eosin (H and E) staining analysis; type: organism-based; conditions: in vivo, 408 h, time 17 day
LX-2 = assay: Antiproliferative activity against GPC3-negative human LX-2 cells assessed as cytotoxicity measured after 72 hrs by MTT assay; type: functional, cell-based; conditions: LX-2, 72 h
[18] = Toxicity in female BALB/c mouse xenografted with human Huh-7 cells assessed as pathological change in heart tissue at 1 mg/kg, iv followed by irradiated with 2 Gy for 2 consecutive days, once a week for 3 weeks measured on day 22; type: organism-based; conditions: in vivo, 528 h, time 22 day

- half-life at 500 µM [2]: 8.8 h
- remaining at 8 h, 500 µM [5]: 19.9%
- remaining at 8 h, 500 µM [7]: 57.2%
- remaining at 48 h, 500 µM [9]: 25.3%
- half-life at 500 µM [10]: 4 h
- Stability [13]: Stable
- Drug metabolism (Cathepsin B): metabolite_detected
Structure (SMILES): CC[C@H](C)[C@@H]([C@@H](CC(=O)N1CCC[C@H]1[C@H](OC)[C@@H](C)C(=O)N[C@H](C)[C@@H](O)c1ccccc1)OC)N(C)C(=O)[C@@H](NC(=O)[C@H](C(C)C)N(C)C(=O)OCc1ccc(NC(=O)[C@H](CCCNC(N)=O)NC(=O)[C@@H](NC(=O)CCCCCN2C(=O)CC(SC[C@H](N)C(=O)N[C@@H](CO)C(=O)N[C@@H](CC(N)=O)C(=O)N[C@@H](CC(=O)O)C(=O)N[C@@H](CCCNC(=N)N)C(=O)N3CCC[C@H]3C(=O)N3CCC[C@H]3C(=O)N[C@@H](CC(N)=O)C(=O)N[C@H](C(=O)N[C@@H](CC(C)C)C(=O)N[C@@H](CCC(N)=O)C(=O)N[C@@H](CCCCN)C(=O)N[C@@H](CCCNC(=N)N)C(N)=O)[C@@H](C)CC)C2=O)C(C)C)cc1)C(C)C (stereo partly drawn)
- Activity [1]: Non-toxic
- Activity [3]: Non-toxic
- Activity [4]: Non-toxic
- IC50 (Huh-7): 1.91 nM
- Activity [6]: Non-toxic
- Activity [8]: Non-toxic
- IC50 (HeLa): > 100 nM
- Activity [11]: Non-toxic
- IC50 (Hep 3B2): 12.2 nM
- Activity [12]: Non-toxic
- Activity [14]: Non-toxic
- Activity [15]: Non-toxic
- Activity [16]: Non-toxic
- Activity [17]: Non-toxic
- IC50 (LX-2): > 100 nM
- Activity [18]: Non-toxic
